# Laboratory results reported in PMC9334755 (Cancer Biology & Medicine, 2021).
# Legend:
# [1] = target: FLT3 (Homo sapiens, UniProt P36888); assay: Protein kinase panel at 1 µM, FLT3; assay type: biochemical
# [2] = target: T1, BTK (Homo sapiens, UniProt Q06187); assay: Recovery of BTK activity after dilution (HTRF); assay type: biochemical; conditions: BTK incubated with inhibitor for 2 h, mixture diluted
# Procedure: In addition, after incubation of BTK with the inhibitors for 4 h, we performed liquid chromatography-tandem mass spectrometry (LC-MS/MS) to detect the abundance of the inhibitors.
# (A) The compounds were incubated with BTK for 2 h, after which HTRF assays were performed with dilution of the mixture. The reactions were stopped at different time points. Data are shown as the mean ± SEM. (B) The content of the compounds was measured with LC-MS/MS after incubation with BTK for 4 h. Data are shown as the mean ± SEM (n = 3). Statistical analysis was performed with Student’s t-test (***P < 0.001). […] Cells were lysed and analyzed by Western blot and fluorescent gel scanning.
# [3] = target: hERG (Homo sapiens, UniProt Q12809)
# Chain of hERG (Q12809 whole entry): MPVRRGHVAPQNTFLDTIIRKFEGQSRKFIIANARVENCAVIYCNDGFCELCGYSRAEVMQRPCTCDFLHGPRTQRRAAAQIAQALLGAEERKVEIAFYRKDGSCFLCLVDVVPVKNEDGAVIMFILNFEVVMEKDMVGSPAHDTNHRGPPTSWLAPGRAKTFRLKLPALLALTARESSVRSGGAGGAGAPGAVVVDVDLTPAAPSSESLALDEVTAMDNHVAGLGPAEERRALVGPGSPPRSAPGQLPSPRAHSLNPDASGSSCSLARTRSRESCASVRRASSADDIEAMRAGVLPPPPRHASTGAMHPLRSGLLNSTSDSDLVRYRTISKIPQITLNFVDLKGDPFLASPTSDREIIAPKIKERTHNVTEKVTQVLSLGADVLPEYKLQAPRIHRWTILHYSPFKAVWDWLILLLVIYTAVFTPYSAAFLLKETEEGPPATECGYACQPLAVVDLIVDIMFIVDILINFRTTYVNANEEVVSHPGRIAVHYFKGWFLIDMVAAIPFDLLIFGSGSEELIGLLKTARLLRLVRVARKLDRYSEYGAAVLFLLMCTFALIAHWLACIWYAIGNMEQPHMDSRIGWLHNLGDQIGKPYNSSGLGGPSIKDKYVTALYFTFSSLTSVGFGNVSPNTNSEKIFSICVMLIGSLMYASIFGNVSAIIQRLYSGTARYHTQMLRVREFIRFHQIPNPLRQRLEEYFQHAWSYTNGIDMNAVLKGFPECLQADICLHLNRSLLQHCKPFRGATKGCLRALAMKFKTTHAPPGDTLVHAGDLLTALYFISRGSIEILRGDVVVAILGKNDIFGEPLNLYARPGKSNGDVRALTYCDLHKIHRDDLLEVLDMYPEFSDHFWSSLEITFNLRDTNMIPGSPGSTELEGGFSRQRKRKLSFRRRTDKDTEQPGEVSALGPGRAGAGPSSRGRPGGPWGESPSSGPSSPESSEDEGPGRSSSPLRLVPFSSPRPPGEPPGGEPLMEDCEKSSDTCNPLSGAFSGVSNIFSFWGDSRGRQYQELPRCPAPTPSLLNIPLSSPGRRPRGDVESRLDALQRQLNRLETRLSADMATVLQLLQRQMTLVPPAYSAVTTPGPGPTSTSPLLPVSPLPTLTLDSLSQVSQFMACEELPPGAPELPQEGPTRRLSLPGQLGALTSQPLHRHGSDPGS
# From the text: Tissue distribution *From the literature.
# Hear Liver Spleen LungKidney Brain Uteru Ovar TestisPlasma
# Compound Maximum concentration (μM) Inhibition rate of maximumconcentration IC 50 (μM) […]
# [4] = target: ABL1 (Homo sapiens, UniProt P00519); assay: Protein kinase panel at 1 µM, ABL1; assay type: biochemical
# [5] = tested on: Pfeiffer; assay: Cell viability assay (CellTiter-Blue), Pfeiffer; assay type: cell-based, human; conditions: Pfeiffer cells; read-out: IC50 (nM), growth of Pfeiffer
# Procedure: Cells were seeded on 96-well plates (9,000 cells/well), cultured at 37 °C in 5% CO2 overnight, and incubated with different concentrations of compounds for 3 or 7 days. Then the cells were stained with CellTiter-Blue® reagent (Promega) for 4 h at 37 °C. The fluorescence signals were detected with a FlexStation 3, and the IC50 values of each compound were determined with GraFit software (Version 6.0).
# [6] = target: TXK (Homo sapiens, UniProt P42681); assay: Protein kinase panel at 1 µM, TXK; assay type: biochemical
# Chain of TXK (P42681 whole entry): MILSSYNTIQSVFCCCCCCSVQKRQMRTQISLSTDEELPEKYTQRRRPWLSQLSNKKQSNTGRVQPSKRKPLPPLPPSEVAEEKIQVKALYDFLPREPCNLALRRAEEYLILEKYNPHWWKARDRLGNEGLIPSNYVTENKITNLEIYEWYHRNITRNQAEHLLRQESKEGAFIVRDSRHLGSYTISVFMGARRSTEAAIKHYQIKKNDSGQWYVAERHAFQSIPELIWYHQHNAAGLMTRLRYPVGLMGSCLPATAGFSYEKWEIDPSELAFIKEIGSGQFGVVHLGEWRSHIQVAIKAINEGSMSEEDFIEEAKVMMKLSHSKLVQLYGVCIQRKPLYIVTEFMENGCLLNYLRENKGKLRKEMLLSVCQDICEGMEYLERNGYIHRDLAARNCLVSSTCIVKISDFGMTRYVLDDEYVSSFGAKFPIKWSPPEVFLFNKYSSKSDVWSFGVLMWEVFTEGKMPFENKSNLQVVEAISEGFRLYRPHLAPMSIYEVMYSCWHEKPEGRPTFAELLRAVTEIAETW
# [7] = tested on: Pfeiffer cells; assay: Apoptosis detection (Annexin V / 7-AAD) in Pfeiffer cells; assay type: cell-based; conditions: 24 h, Annexin V and 7-AAD
# Procedure: Apoptosis assays were performed with an Annexin V-PE Apoptosis Detection Kit I (BD Biosciences). Briefly, 5 × 10^5 Pfeiffer cells were seeded on 6-well plates and treated with BTK inhibitors at the indicated concentrations. After 24 h or 48 h, cells were collected and stained with PE Annexin V and 7-AAD according to the manufacturer’s instructions. FACS analysis was performed with a Guava flow cytometer.
# Figure 4 SY-1530 blocks B-cell receptor signaling and induces apoptosis. (A–D) Human B and T cells were purified and incubated with different concentrations of BTK inhibitors for 1 h. B cells were stimulated with 50 μg/mL anti-human IgM F(ab′)2, and T cells were stimulated with 50 μg/mL anti-CD3/CD28 beads overnight directly or after washout of BTK inhibitors before stimulation. The percentage of CD69 positive cells was analyzed by flow cytometry. Data are shown as the mean ± SEM (n = 3). Statistical analysis was performed with Student’s t-test (*P < 0.05, **P < 0.01, ***P < 0.001). (E) Pfeiffer cells and Romas cells were preincubated with different concentrations of compounds for 1 h, washed with PBS, and then stimulated with anti-IgM/anti-IgG (10 μg/mL) for 10 min. Cells were lysed and analyzed by Western blot with the indicated antibodies. […] The cells were stained with both PE-Annexin and 7-AAD and analyzed by flow cytometry. […] Cells were lysed and analyzed with specific antibodies.
# [8] = target: T1, BTK; assay: HTRF assay of BTK activity; assay type: biochemical; conditions: double reciprocal curve
# [9] = tested on: TMD8 xenografts; assay: TMD8 tumor xenograft in SCID mice; assay type: in vivo
# Procedure: TMD8 cells (1.0 × 10^7 cells in 100 µL of serum-free medium containing 40% Matrigel) were injected subcutaneously into SCID mice (6–8 weeks of age), and the tumor volume was monitored twice per week. […] The compounds were formulated in 0.5% methylcellulose containing 0.1% sodium lauryl sulfate. Tumor size and body weight were measured twice per week. All experiments were approved by the institutional animal care and use committee of Shouyao Holdings and were performed in accordance with the guidelines in the U.S. National Institutes of Health Guide for the Care and Use of Laboratory Animals (Approval No. CTA-2015063).
# Figure 5 SY-1530 inhibits B-cell malignancy in vivo. (A–D) TMD8 cells were injected subcutaneously into SCID mice (6–8 weeks of age; 8 mice per group). […] Tumor size (A) and body weight (B) were measured […]. On the last day, mice were sacrificed 2.5 h after administration. LC-MS/MS was performed to measure the concentration of SY-1530 in plasma (C), and tumor samples were collected and analyzed with Western blot (D). QD represents administration once daily. Data are shown as mean ± SEM. Statistical analysis was performed with two-way analysis of variance (*P < 0.05; **P < 0.01; ***P < 0.001). […] Tumor size (E), body weight (F), SY-1530 concentration in the plasma (G), and protein expression in tumors (H) were measured. Data are shown as mean ± SEM. Statistical analysis was performed with two-way analysis of variance (*P < 0.05; **P < 0.01; ***P < 0.001).
# [10] = target: T1, BTK; assay: Competition with fluorescent probe FL-SY-1530 in DOHH2 cells (Typhoon imaging); assay type: cell-based; conditions: 10 nM inhibitor 1 h, then 2.5 µM FL-SY-1530 1 h
# Procedure: Data are shown as the mean ± SEM. […] Data are shown as the mean ± SEM of 3 independent experiments. Statistical analysis was performed with Student’s t-test (**P < 0.01, ***P < 0.001). […] Cells were lysed and then analyzed by Western blot and fluorescent gel scanning. […] Cells were lysed and analyzed by Western blot and fluorescent gel scanning.
# [11] = target: CSK (Homo sapiens, UniProt P41240); assay: Protein kinase panel at 1 µM, CSK; assay type: biochemical
# Chain of CSK (P41240 whole entry): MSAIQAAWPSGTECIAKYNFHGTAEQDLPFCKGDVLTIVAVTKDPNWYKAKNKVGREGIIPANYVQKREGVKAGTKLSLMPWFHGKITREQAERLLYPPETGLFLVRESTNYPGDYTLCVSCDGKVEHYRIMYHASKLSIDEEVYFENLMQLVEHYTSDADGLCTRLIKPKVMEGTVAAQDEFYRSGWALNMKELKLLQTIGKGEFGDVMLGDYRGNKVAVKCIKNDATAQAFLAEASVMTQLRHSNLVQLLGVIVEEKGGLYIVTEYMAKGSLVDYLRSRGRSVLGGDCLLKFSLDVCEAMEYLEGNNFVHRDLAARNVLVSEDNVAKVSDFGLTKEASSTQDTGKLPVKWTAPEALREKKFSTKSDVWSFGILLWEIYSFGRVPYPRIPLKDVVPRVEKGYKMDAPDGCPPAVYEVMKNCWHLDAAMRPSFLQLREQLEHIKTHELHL
# [12] = target: JAK3 (Homo sapiens, UniProt P52333); assay: HTRF kinase assay, JAK3
# Chain of JAK3 (P52333 whole entry): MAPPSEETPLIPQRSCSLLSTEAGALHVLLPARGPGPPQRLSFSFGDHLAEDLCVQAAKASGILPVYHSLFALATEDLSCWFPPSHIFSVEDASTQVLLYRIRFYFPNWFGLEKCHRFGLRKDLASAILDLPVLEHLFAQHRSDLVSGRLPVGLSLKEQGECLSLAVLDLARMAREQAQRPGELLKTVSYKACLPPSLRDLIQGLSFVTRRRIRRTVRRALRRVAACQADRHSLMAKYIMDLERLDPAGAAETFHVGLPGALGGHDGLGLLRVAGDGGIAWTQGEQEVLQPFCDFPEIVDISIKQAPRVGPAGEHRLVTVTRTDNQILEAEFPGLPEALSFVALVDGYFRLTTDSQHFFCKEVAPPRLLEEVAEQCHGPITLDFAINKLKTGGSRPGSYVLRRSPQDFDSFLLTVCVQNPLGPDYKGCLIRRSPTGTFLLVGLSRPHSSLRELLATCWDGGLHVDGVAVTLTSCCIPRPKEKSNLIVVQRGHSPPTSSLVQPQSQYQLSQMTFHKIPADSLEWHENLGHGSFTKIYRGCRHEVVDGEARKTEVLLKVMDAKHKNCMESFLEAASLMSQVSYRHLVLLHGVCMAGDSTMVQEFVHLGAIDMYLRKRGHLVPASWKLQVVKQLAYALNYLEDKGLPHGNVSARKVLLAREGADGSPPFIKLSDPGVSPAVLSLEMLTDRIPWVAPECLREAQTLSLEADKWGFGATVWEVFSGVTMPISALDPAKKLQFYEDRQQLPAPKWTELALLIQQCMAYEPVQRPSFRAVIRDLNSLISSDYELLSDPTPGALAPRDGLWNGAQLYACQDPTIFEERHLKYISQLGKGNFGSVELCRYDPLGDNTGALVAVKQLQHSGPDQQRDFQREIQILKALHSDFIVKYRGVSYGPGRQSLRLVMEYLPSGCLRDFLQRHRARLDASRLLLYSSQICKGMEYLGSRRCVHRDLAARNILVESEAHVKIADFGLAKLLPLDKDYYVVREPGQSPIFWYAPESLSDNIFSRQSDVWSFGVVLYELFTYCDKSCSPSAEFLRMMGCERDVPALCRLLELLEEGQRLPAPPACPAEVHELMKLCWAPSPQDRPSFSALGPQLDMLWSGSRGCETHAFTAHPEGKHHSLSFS
# Procedure: Homogeneous time-resolved fluorescence (HTRF) assays were performed with a HTRF® KinEASE™-TK kit (Trevigen).
# T1 sequence (Q06187 whole entry): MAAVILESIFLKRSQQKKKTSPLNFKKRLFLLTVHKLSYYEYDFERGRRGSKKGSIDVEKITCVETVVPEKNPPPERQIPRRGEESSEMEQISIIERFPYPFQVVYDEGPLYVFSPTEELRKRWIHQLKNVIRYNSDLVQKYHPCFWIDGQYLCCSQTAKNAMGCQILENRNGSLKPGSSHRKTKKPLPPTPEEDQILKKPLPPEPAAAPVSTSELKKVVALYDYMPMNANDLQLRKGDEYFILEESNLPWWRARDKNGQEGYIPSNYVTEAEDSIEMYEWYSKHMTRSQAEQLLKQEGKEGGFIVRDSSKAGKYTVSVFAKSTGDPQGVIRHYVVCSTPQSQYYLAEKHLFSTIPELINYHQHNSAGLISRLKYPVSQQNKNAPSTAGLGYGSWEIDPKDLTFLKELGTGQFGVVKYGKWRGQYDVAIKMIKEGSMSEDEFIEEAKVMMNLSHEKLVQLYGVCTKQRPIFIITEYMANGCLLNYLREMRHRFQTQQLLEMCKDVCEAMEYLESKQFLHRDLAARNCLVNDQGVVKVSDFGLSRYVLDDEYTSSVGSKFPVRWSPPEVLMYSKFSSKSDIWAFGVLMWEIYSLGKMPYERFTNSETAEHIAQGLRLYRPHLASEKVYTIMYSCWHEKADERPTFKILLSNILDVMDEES
# Chain of FLT3 (P36888 27-993): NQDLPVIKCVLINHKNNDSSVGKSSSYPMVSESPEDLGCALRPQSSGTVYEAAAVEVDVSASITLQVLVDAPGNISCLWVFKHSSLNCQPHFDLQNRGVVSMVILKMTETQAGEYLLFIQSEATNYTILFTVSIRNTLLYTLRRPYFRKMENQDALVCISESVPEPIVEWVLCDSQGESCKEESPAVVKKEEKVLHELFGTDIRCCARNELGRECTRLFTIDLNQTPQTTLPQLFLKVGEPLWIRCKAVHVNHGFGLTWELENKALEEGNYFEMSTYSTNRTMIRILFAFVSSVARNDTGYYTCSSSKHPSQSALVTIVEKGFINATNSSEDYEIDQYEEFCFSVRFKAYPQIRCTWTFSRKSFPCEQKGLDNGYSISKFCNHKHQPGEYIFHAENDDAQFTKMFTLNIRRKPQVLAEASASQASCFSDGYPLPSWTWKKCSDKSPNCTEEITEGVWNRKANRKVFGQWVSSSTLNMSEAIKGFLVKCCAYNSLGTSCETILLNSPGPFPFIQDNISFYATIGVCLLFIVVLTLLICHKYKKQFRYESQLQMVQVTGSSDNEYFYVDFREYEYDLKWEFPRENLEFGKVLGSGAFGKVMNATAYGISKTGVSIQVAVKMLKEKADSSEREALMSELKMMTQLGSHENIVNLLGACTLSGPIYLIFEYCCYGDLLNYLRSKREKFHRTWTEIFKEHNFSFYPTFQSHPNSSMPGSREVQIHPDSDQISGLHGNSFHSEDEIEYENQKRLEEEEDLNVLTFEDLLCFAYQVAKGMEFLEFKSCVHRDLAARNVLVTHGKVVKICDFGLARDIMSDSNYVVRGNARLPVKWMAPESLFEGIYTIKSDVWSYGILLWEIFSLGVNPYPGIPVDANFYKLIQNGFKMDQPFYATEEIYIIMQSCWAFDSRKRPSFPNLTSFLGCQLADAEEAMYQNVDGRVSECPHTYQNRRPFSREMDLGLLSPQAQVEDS
compound,measurement,setting,value
COC/C=C/C(=O)N1CC[C@@H](n2nc(-c3ccc(Oc4ccccc4)cc3)c(C(N)=O)c2N)C1 [SY-1530],"Inhibition (%), FLT3",[1],68%
same,Recovery of BTK activity after dilution,[2],did not recover
same,IC50,[3],5.41 µM
same,"Inhibition rate of maximum concentration, hERG",[3]; 30 µM,86.75 ± 2.61%
same,"Inhibition (%), ABL1",[4],8%
same,IC50,[5],71.4 nM
same,"Inhibition (%), TXK",[6],73%
same,Apoptosis in Pfeiffer cells,[7],induced early and late apoptosis
same,Type of inhibition with respect to ATP,[8],non-ATP competitive inhibitor
same,Inhibitory potency on tumor growth,[9]; 30 mg/kg BID,better inhibitory potency on tumor growth than the same dose of ibrutinib
same,Anti-tumor activity,[9]; 30 mg/kg QD,comparable to that of ibrutinib at 100 mg/kg
same,Inhibitory potency on tumor growth,"[9]; 100 mg/kg QD, versus ibrutinib 100 mg/kg QD",better inhibitory potency on tumor growth than ibrutinib
same,Mouse bodyweight,[9]; BID groups,moderate decrease
same,Tumor growth versus vehicle treated group,"[9]; BID, SY-1530 30 or 10 mg/kg, ibrutinib 30 mg/kg",dramatically lower
same,Bodyweights of mice,[9]; QD groups,moderately changed
same,Concentration in plasma,"[9]; QD groups, 2.5 h after administration on the last day",higher than those of ibrutinib
same,Tumor volume,"[9]; oral, QD, 29 days",significant decrease in tumor volumes
same,Binding of FL-SY-1530 to BTK after pretreatment with inhibitor,[10],scarcely bound
same,"Inhibition (%), CSK",[11],84%
same,"Ratio, JAK3",[12]; IC50 SY-1530 over IC50 ibrutinib,> 27
same,IC50,"[12]; read-out: IC50 (nM), JAK3, HTRF",> 10000 nM
